Test results as given in ChEMBL document CHEMBL1201862, “PubChem BioAssay data set” (2004).
The source made the active and inactive calls.

What was measured:
[1] = fluconazole-exposed Candida albicans growth modulators – fluorescence, retest, confirmation (AID 2467); format: functional, cell-based
[2] = biological target: T1, Aminopeptidase N (Plasmodium falciparum FcB1/Columbia, UniProt O96935); assay: malaria alanyl aminopeptidase activity blockers – biochemical, fluorogenic H-Leu-NHMec substrate, 1536-well (AID 1445); parameters: species or system Plasmodium falciparum 3D7, 3D7
T1 sequence (O96935 whole entry): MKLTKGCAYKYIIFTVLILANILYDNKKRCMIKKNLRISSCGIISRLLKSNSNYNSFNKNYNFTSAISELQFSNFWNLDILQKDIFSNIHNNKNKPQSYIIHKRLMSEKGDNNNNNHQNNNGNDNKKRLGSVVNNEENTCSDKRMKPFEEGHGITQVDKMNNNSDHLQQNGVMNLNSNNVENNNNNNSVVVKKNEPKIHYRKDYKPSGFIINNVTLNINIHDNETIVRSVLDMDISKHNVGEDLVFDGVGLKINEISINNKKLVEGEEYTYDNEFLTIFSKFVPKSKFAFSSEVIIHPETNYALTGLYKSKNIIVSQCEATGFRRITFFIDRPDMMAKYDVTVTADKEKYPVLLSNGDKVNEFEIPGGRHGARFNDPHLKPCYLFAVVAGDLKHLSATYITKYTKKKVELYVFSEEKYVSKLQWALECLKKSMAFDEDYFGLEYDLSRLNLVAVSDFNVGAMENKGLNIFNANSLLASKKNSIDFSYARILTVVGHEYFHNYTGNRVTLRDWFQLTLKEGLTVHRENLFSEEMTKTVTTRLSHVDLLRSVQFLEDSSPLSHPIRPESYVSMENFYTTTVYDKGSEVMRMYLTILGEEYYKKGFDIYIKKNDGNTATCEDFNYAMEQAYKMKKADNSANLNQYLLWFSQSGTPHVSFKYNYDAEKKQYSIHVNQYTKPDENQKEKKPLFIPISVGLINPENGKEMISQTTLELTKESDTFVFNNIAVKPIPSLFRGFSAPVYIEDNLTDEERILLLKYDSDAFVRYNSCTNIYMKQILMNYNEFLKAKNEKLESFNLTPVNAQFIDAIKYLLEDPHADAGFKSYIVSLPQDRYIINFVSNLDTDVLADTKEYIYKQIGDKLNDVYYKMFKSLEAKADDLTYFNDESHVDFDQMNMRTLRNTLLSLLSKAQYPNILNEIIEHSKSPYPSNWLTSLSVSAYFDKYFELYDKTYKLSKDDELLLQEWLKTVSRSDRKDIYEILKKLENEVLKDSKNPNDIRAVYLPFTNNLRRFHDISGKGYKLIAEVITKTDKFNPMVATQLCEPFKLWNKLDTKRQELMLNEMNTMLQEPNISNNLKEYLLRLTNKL

[3] = biological target: T2, Alkaline phosphatase, tissue-nonspecific isozyme (Homo sapiens, UniProt P05186); assay: potency against alkaline phosphatase TNAP – biochemical, luminescent, dose response, SAR follow-up (AID 1056)
T2 sequence (P05186 whole entry): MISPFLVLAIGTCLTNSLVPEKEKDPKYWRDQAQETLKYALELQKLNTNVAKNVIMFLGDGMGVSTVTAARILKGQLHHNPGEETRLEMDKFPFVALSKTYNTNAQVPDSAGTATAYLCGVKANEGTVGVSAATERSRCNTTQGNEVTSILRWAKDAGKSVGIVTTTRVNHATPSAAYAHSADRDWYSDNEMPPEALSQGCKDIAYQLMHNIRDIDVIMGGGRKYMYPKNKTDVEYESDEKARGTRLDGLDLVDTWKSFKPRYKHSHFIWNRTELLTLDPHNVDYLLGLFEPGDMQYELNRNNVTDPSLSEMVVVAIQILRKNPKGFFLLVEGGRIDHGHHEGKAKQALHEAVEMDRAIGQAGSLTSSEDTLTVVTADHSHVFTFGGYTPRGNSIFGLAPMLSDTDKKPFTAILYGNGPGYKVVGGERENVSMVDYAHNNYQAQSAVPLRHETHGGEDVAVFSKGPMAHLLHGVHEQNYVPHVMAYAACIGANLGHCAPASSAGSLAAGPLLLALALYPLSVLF

[4] = biological target: Intestinal-type alkaline phosphatase (Mus musculus, UniProt P24822); assay: mouse intestinal alkaline phosphatase activators, dose response, biochemical, luminescence, uHTS hits (AID 488783); format: functional
Chain of Intestinal-type alkaline phosphatase (Mus musculus, UniProt P24822) (P24822 whole entry): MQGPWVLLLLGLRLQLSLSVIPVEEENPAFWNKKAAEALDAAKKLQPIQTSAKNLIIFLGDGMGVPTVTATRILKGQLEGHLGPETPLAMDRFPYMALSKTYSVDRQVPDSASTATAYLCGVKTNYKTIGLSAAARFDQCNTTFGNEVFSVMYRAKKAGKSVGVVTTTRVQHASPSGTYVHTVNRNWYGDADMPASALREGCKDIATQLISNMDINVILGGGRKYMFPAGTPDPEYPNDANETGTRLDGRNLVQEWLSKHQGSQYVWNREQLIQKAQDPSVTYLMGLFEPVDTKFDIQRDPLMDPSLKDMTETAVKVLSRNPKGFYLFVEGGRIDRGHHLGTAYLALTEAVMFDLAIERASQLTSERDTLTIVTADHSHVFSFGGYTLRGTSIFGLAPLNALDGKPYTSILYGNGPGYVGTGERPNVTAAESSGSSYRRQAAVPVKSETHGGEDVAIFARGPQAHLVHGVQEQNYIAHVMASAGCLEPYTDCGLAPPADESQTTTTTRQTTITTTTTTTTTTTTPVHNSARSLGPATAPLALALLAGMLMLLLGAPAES

[5] = biological target: Intestinal-type alkaline phosphatase (Homo sapiens, UniProt P09923); assay: activation of human intestinal alkaline phosphatase – biochemical, dose response (AID 488873); format: functional
Chain of Intestinal-type alkaline phosphatase (Homo sapiens, UniProt P09923) (P09923 whole entry): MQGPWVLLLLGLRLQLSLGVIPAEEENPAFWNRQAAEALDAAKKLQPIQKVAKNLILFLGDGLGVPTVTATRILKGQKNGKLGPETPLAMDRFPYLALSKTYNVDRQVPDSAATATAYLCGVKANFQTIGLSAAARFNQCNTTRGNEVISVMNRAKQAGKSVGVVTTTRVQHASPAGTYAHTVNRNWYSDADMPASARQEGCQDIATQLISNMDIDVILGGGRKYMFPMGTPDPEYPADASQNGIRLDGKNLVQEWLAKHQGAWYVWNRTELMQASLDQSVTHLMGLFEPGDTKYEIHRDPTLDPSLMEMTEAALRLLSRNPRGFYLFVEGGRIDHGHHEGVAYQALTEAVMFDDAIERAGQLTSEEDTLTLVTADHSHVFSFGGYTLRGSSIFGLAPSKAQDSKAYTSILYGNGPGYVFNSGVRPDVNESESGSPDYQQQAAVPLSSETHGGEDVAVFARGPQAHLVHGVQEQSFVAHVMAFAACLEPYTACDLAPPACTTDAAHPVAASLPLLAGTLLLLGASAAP

[6] = NIH-3T3 fibroblast cytotoxicity, dose response, cytotoxicity control, cell-based, fluorescence, Alamar Blue, secondary assay (AID 2327); format: functional;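 also: NIH-3T3 mouse fibroblasts cultured with fluconazole at 8 µg/mL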
[7] = biological target: T3, Bcl-2-like protein 10 (Homo sapiens, UniProt Q9HD36); assay: Bcl-B/TR3 peptide binding disruption – biochemical, fluorescence polarization, FITC-TR3 peptide, selectivity assay for Bfl-1 inhibitor project, primary screen (AID 748);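 also: fluorescence polarization from a fluorescein-labelled TR3 peptide binding purified Bcl-B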
T3 sequence (Q9HD36 whole entry): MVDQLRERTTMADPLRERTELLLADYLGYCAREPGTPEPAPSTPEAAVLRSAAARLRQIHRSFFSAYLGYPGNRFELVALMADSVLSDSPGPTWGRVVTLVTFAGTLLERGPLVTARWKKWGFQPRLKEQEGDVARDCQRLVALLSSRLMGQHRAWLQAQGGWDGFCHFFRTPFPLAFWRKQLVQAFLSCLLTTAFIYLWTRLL

[8] = biological target: Alkaline phosphatase, placental type (Homo sapiens, UniProt P05187); assay: human placental alkaline phosphatase inhibition – biochemical, luminescence, confirmation (AID 1512); format: functional
Chain of Alkaline phosphatase, placental type (P05187 whole entry): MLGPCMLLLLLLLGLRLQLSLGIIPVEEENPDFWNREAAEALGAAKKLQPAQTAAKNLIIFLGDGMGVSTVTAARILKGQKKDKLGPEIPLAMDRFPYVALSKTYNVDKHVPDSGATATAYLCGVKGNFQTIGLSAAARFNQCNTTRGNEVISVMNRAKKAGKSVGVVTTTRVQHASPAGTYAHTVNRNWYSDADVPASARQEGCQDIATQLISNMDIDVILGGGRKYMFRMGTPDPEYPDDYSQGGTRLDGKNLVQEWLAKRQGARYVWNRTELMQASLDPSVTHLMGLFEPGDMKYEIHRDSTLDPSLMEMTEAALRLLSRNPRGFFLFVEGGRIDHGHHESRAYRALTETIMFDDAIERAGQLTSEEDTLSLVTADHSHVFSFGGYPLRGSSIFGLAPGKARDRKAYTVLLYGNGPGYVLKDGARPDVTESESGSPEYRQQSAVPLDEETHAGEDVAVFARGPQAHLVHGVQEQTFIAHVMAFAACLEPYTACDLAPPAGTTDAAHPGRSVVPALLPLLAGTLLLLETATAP

[9] = biological target: T2, Alkaline phosphatase, tissue-nonspecific isozyme; assay: activation of tissue-nonspecific alkaline phosphatase – biochemical, TNAP isozyme, mouse IAP uHTS hits, selectivity assay for mouse IAP activator project, dose response (AID 488880); format: functional
[10] = biological target: T4, Rac GTPase-activating protein 1 (Homo sapiens, UniProt Q9H0H5); assay: blockers of MgcRacGAP-driven Rac1 GTP hydrolysis – biochemical, ADP Hunter fluorescence, primary and confirmatory, confirmation (AID 624330); format: functional
T4 sequence (Q9H0H5 whole entry): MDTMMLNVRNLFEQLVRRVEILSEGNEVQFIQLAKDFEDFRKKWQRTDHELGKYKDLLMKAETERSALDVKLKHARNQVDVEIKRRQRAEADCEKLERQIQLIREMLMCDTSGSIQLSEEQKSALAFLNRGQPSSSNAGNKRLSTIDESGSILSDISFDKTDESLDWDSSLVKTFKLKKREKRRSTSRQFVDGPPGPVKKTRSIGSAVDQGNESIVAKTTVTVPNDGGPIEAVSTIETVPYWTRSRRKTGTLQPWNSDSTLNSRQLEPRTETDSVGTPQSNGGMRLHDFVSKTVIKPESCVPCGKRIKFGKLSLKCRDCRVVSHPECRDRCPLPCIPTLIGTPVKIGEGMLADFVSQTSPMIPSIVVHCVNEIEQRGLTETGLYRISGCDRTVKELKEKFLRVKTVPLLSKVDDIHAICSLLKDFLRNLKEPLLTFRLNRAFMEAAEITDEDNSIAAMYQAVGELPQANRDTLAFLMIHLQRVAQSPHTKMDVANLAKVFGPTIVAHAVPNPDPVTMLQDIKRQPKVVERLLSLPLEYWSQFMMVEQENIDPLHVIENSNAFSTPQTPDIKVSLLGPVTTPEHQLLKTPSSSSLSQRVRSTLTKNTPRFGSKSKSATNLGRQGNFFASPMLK

[11] = biological target: Mu-type opioid receptor (Homo sapiens, UniProt P35372); assay: SAR Analysis of Agonists of the MOR Receptor using an Image-Based Assay - Set 3. [Related pubchem assays (depositor defined):AID1777, AID1785, AID1786, AID1966, AID2133, AID2136, AID2284, AID2285, AID2352]; format: functional
Chain of Mu-type opioid receptor (P35372 whole entry): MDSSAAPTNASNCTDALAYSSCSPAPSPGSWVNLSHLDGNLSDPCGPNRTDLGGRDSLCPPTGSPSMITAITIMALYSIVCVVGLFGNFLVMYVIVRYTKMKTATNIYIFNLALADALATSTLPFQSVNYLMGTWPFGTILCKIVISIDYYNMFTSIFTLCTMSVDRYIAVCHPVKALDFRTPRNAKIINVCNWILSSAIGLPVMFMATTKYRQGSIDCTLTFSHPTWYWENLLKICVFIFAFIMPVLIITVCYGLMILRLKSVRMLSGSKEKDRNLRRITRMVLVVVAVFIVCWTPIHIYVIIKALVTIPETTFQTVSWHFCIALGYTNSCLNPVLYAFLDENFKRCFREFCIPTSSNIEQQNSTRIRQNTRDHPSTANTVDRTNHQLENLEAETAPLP

[12] = biological target: Delta-type opioid receptor (Homo sapiens, UniProt P41143); assay: SAR Analysis of Agonists of the DOR Receptor using an Image-Based Assay - Set 3. [Related pubchem assays (depositor defined):AID1777, AID1786]; format: functional
Chain of Delta-type opioid receptor (P41143 whole entry): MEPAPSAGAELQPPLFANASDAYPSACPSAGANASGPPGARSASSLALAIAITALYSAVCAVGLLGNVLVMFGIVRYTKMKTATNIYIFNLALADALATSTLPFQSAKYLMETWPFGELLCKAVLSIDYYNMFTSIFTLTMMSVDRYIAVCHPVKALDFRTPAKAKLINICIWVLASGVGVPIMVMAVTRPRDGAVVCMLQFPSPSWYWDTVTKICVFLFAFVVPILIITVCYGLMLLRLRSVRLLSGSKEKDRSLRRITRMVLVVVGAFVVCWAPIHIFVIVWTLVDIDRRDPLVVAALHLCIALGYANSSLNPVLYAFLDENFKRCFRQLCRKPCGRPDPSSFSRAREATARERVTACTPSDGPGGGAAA

[13] = biological target: T5, Kappa-type opioid receptor (Homo sapiens, UniProt P41145); assay: SAR analysis of small molecule agonists of the kappa opioid receptor via a luminescent beta-arrestin assay - Set 3. [Related pubchem assays (depositor defined):AID1777, AID1785, AID1786, AID1966, AID2133, AID2136, AID2284, AID2500]; format: functional
T5 sequence (P41145 whole entry): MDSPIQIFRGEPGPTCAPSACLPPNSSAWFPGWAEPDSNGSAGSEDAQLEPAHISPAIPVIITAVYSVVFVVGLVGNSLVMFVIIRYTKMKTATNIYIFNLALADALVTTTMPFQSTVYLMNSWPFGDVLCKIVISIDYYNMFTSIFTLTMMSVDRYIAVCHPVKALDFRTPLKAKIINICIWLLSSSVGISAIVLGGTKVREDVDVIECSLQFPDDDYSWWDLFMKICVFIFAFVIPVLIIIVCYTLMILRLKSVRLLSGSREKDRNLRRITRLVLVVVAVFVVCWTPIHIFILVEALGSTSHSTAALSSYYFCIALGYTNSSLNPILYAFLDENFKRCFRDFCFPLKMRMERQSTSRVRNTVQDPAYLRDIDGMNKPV

[14] = biological target: T5, Kappa-type opioid receptor; assay: kappa opioid receptor activation by imaging – image-based, set 3, SAR follow-up (AID 488833); format: functional

Compound | EC50 [1] | IC50 [2] | IC50 [3] | EC50 [4] | EC50 [5] | EC50 [6] | IC50 [7] | IC50 [8] | EC50 [9] | IC50 [10] | EC50 [11] | EC50 [12] | EC50 [13] | EC50 [14]
CCn1c(CSc2nc3ccccc3s2)nnc1SCC(=O)c1ccc(O)c(O)c1 | > 38 µM (not active) | 68.8 µM (active) | > 100 µM (inactive) | 1.84 µM (active) | > 100 µM (inactive) | > 160 µM (inactive) | > 100 µM (inactive) | 3.87 µM (inactive) | 64.2 µM (active) | 179 µM (active) |  |  |  | 
O=[N+]([O-])c1ccc(CSc2nnc(-c3ccccn3)n2Cc2cccs2)cc1 |  |  |  |  |  |  |  |  |  |  | > 32 µM (inactive) | > 64 µM (inactive) | 1.24 µM (active) | 0.956 µM (active)
